From paper PMC12808100, “The non-catalytic DNA polymerase ε subunit is an NPF motif recognition protein” (Nature Communications, 2025) come the findings set out here.

The target in the experiment is His6-avi-MBP-tagged POLE2. Description: Single-point nHU-MS with recombinant His6-avi-MBP-POLE2 bait, Jurkat extract. Format: binding, human. To be noted: significant apparent affinity of endogenous prey protein for POLE2 bait; single-point nHU-MS; Figure S11. An excerpt:
So far, our study only focused on a few hand-picked NPF motifs and studied them as short synthetic peptides. However, many other proteins may be present in the proteome that could bind to POLE2 and their putative NPF motifs are embedded in their natural structures that can greatly affect their binding properties. To investigate interactions between POLE2 and intact, full length proteins proteome-wide, we used nHU-MS experiments with recombinant His6-avi-MBP-tagged POLE2 as bait and purified His6-avi-MBP as a control. Even though we are aware that this recombinant POLE2 may bind to NPF motifs with a somewhat altered affinity, we assumed that this would affect all NPF motif-mediated interactions equally, allowing an unbiased affinity ranking of all identified partners. Single point nHU measurements were performed at 26 μM POLE2 concentration and the recovered supernatant was measured by label free proteomic MS measurements (Fig. 3A, Supplementary Figs. 8A, 9, Supplementary Data 1).
Single-point nHU experiments with protein baits were carried out nearly identically with two key modifications. First, the resin saturation step was carried out by mixing 50 μl streptavidin resin with 0.5−1 ml 50 μM biotinylated protein solution and the mixture was incubated for 1.5 h at 4 °C with constant agitation. Second, instead of using estimated bait concentrations, we measured it experimentally. An extra aliquot of resin stock was prepared alongside the nHU samples that were identically processed that were used to eluate the immobilized proteins under harsh conditions, in order to experimentally quantify the Cbait by using densitometry of Coomassie stained SDS-PAGE that included a protein calibration series. For this, 50 μl bait-saturated resin aliquots were mixed with 200 μl 4x Laemmli Sample Buffer (120 mM Tris-HCl pH 7, 8% SDS, 100 mM DTT, 32% glycerol, 0.004% bromphenol blue, 1% β-mercaptoethanol), instead of cell extract. After 15 min incubation at 95 °C, these samples were analyzed by SDS-PAGE using protein calibration standard, made from recombinant MBP. Densitometry was carried out after Coomassie staining on raw Tif images by using Fiji ImageJ 1.53c and experimental bait concentration were determined by adjusting for molecular weight differences between MBP and MBP-POLE2 constructs.
Samples were digested overnight at 37 °C.
Consider “HARISSTSHT [TRIP11, endogenous full length prey protein]”, for which the pKapp_sign was 4.056.

As to KSVD [MYCBP2], the pKapp_sign was found to be 4.444.

As for NSVD [GYS1], the pKapp_sign is 4.403.

For the substance “TSSTPE [AGFG1, endogenous full length prey protein]”, the pKapp_sign is 4.872.
